Laboratory results reported in the supplement of paper PMC10307832.

How the values were obtained:
Test in all cases: relative viability (nuclei count vs DMSO), 5 days (fraction); higher = more cells survive
[1] = compound: CO[C@@H]1[C@H](N(C)C(=O)c2ccccc2)C[C@H]2O[C@]1(C)n1c3ccccc3c3c4c(c5c6ccccc6n2c5c31)C(=O)NC4 [Midostaurin] + CC(=O)c1c(C)c2cnc(Nc3ccc(N4CCNCC4)cn3)nc2n(C2CCCC2)c1=O [Palbociclib] (partner 0.5 µM)
Outline: (§1)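 Values are medians from duplicate plates. Each reflects relative viability, defined as the nuclei count of treated wells over that of vehicle wells. Lung cancer cell lines in 1536-well plates were pin-tool dosed one day after seeding with one drug alone or with a fixed anchor-drug dose plus five library-drug doses (not always all listed) in √10 steps, then fixed, stained and imaged at 4× after 5 days.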

Midostaurin + Dasatinib = compound: CO[C@@H]1[C@H](N(C)C(=O)c2ccccc2)C[C@H]2O[C@]1(C)n1c3ccccc3c3c4c(c5c6ccccc6n2c5c31)C(=O)NC4 [Midostaurin] + Cc1nc(Nc2ncc(C(=O)Nc3c(C)cccc3Cl)s2)cc(N2CCN(CCO)CC2)n1 [Dasatinib] (partner 0.075 µM)
Outline: as §1

[2] = compound: COc1cc(-c2nn([C@H]3CC[C@H](N4CCN(C(C)=O)CC4)CC3)c3ncnc(N)c23)ccc1NC(=O)c1cc2ccccc2n1C + CC(=O)c1c(C)c2cnc(Nc3ccc(N4CCNCC4)cn3)nc2n(C2CCCC2)c1=O [Palbociclib] (partner 0.5 µM)
Outline: as §1

[3] = compound: COc1cc(-c2nn([C@H]3CC[C@H](N4CCN(C(C)=O)CC4)CC3)c3ncnc(N)c23)ccc1NC(=O)c1cc2ccccc2n1C + COc1cc2c(Oc3ccc(NC(=O)C4(C(=O)Nc5ccc(F)cc5)CC4)cc3F)ccnc2cc1OCCCN1CCOCC1 [Foretinib] (partner 0.25 µM)
Outline: as §1

[4] = compound: COc1cc(-c2nn([C@H]3CC[C@H](N4CCN(C(C)=O)CC4)CC3)c3ncnc(N)c23)ccc1NC(=O)c1cc2ccccc2n1C + CS(=O)(=O)N1CCN(Cc2cc3nc(-c4cccc5[nH]ncc45)nc(N4CCOCC4)c3s2)CC1 [Pictilisib] (partner 1 µM)
Outline: as §1

Row | Cell Line | relative viability ([1]; first compound 0.01 µM) | relative viability ([1]; first compound 0.03162 µM) | relative viability ([1]; first compound 0.1 µM) | relative viability ([1]; first compound 0.3162 µM) | relative viability (Midostaurin + Dasatinib; first compound 0.01 µM) | relative viability (Midostaurin + Dasatinib; first compound 0.03162 µM) | relative viability (Midostaurin + Dasatinib; first compound 0.1 µM) | relative viability (Midostaurin + Dasatinib; first compound 0.3162 µM) | relative viability ([2]; first compound 0.0128 µM) | relative viability ([2]; first compound 0.04048 µM) | relative viability ([2]; first compound 0.128 µM) | relative viability ([2]; first compound 1.28 µM) | relative viability ([3]; first compound 0.0128 µM) | relative viability ([3]; first compound 0.04048 µM) | relative viability ([3]; first compound 0.128 µM) | relative viability ([3]; first compound 1.28 µM) | relative viability ([4]; first compound 0.0128 µM) | relative viability ([4]; first compound 0.04048 µM) | relative viability ([4]; first compound 0.128 µM) | relative viability ([4]; first compound 1.28 µM)
1 | LK-2 | 0.595 | 0.692 | 0.701 | 0.861 | 0.333 | 0.251 | 0.393 | 0.501 | 0.698 | 0.858 | 0.834 | 0.518 | 1.34 | 1.24 | 1.05 | 0.761 | 0.557 | 0.543 | 0.55 | 0.375
2 | NCI-H1437 | 0.353 | 0.326 | 0.34 | 0.367 | 0.354 | 0.458 | 0.35 | 0.368 | 0.302 | 0.326 | 0.281 | 0.283 | 1.34 | 1.31 | 1.29 | 1.29 | 0.413 | 0.514 | 0.406 | 0.314
3 | COR-L23 | 0.259 | 0.346 | 0.285 | 0.207 | 0.436 | 0.455 | 0.368 | 0.27 | 0.324 | 0.253 | 0.313 | 0.24 | 1.08 | 1.14 | 0.894 | 0.981 | 0.919 | 0.666 | 0.801 | 0.839
4 | ABC-1 | 0.709 | 1.01 | 0.679 | 0.559 | 0.512 | 0.668 | 0.451 | 0.504 | 0.646 | 0.84 | 0.391 | 0.469 | 0.967 | 0.953 | 1.05 | 0.881 | 0.805 | 0.648 | 0.613 | 0.631
5 | NCI-H522 | 1.01 | 0.876 | 0.967 | 1.32 | 0.981 | 0.995 | 0.789 | 1.04 | 1.08 | 0.864 | 0.822 | 0.778 |  |  |  |  |  |  |  | 
6 | NCI-H838 | 0.237 | 0.229 | 0.251 | 0.185 | 0.237 | 0.282 | 0.292 | 0.288 | 0.222 | 0.208 | 0.216 | 0.181 | 1.01 | 0.989 | 0.973 | 0.604 | 0.403 | 0.397 | 0.38 | 0.338
7 | SW 900 | 0.574 | 0.587 | 0.545 | 0.639 | 0.7 | 0.684 | 0.538 | 0.275 | 0.564 | 0.584 | 0.538 | 0.353 | 0.813 | 0.91 | 0.843 | 0.66 |  |  |  | 
8 | A549 |  |  |  |  |  |  |  |  |  |  |  |  | 0.927 | 0.991 | 0.969 | 0.935 | 0.538 | 0.63 | 0.429 | 0.501
9 | A-427 | 0.486 | 0.566 | 0.513 | 0.508 | 0.726 | 0.63 | 0.607 | 0.704 | 0.544 | 0.554 | 0.551 | 0.521 | 1.03 |  | 0.988 | 0.884 | 0.652 | 0.127 | 0.703 | 0.493
